Results published in a flash point compilation (Sun et al. 2020).

In the case of `CC(C)[O-].CC(C)[O-].CC(C)[O-].[B+3]` [BORON ISOPROPOXIDE], the flash point is reported as 28.00 °C. `C[O-].C[O-].C[O-].[B+3]` [BORON METHOXIDE] showed a flash point of -1.00 °C. `CCCC[O-].CCCC[O-].CCCC[O-].[B+3]` [BORON n-BUTOXIDE] showed a flash point of 93.00 °C. `CCCCC(CC)C(=O)[O-].CCCCC(CC)C(=O)[O-].[Ca+2]` (centres undefined) [CALCIUM 2-ETHYLHEXANOATE] showed a flash point of 127.00 °C. With `[CH3][Cd][CH3]` [DIMETHYLCADMIUM] the flash point was -18.00 °C. `c1ccc(Pc2ccccc2)cc1` [DIPHENYLPHOSPHINE] gave a flash point of 110.00 °C. In the case of `CC[N-]C.CC[N-]C.CC[N-]C.CC[N-]C.[Hf+4]` [HAFNIUM TETRAKIS(ETHYLMETHYLAMIDE)], the flash point is reported as 10.00 °C. With `C[CH2][Pb]([CH2]C)([CH2]C)[CH2]C` [TETRAETHYLLEAD] the flash point was 73.00 °C. `CC(C)C[O-].CC(C)C[O-].CC(C)C[O-].CC(C)C[O-].[Ti+4]` [TITANIUM ISOBUTOXIDE] showed a flash point of 77.00 °C. `C[O-].C[O-].C[O-].C[O-].[Ti+4]` [TITANIUM METHOXIDE] gave a flash point of 48.00 °C. Compound `Cc1ccccc1[O-].Cc1ccccc1[O-].Cc1ccccc1[O-].Cc1ccccc1[O-].[Ti+4]` [TITANIUM METHYLPHENOXIDE] has a flash point of 66.00 °C. `C[N-]C.C[N-]C.C[N-]C.C[N-]C.[Ti+4]` [TITANIUM TETRAKIS(DIMETHYLAMIDE)] showed a flash point of 8.00 °C. `CCCC[O-].CCCC[O-].CCCC[O-].CCCC[O-].[Ti+4]` [TITANIUM n-BUTOXIDE] showed a flash point of 76.00 °C. In the case of `CCOP(OCC)OCC` [TRIETHYLPHOSPHITE], the flash point is reported as 54.00 °C. `CCCCCCCCP(CCCCCCCC)CCCCCCCC` [TRIOCTYLPHOSPHINE] gave a flash point of 147.00 °C. Work on `CC[N](CC)[Ta](=[N]C(C)(C)C)([N](CC)CC)[N](CC)CC` [TRIS(DIETHYLAMINO)(t-BUTYLIMINO) TANTALUM] yielded a flash point of 46.00 °C. Work on `C[Si](C)(C)OB(O[Si](C)(C)C)O[Si](C)(C)C` [TRIS(TRIMETHYLSILOXY)BORON] yielded a flash point of 42.00 °C. With `C=C[c-]1cccc1.[Fe+2].c1cc[cH-]c1` [VINYLFERROCENE] the flash point was 62.00 °C. `CCCCC(CC)C(=O)[O-].CCCCC(CC)C(=O)[O-].[Zn+2]` (centres undefined) [ZINC 2-ETHYLHEXANOATE] showed a flash point of 127.00 °C. For `CC(C)(C)CCCCCC(=O)[O-].CC(C)(C)CCCCCC(=O)[O-].[Zn+2]` [ZINC NEODECANOATE], the flash point was 102.00 °C. `CC[N-]C.CC[N-]C.CC[N-]C.CC[N-]C.[Zr+4]` [ZIRCONIUM TETRAKIS(ETHYLMETHYLAMIDE)] showed a flash point of 10.00 °C. In the case of `CC(C)(C)[O-].CC(C)(C)[O-].CC(C)(C)[O-].CC(C)(C)[O-].[Zr+4]` [ZIRCONIUM t-BUTOXIDE], the flash point is reported as 85.00 °C.

Remark: another data set of the same source
Work on `CCC(C)(C)c1ccccc1` [2-phenyl-2-methylbutane] yielded a flash point of 65 °C.

Remark: another data set of the same source
With `CCCC(C)CCl` (centres undefined) [1-Chloro-2-methylpentane] the flash point was 25.1 °C. With `CCCC(C)CCCl` (centres undefined) [1-Chloro-3-methylhexane] the flash point was 39.2 °C. For `CCC(C)CCCl` (centres undefined) [1-Chloro-3-methylpentane], the flash point was 25.1 °C. For `CCCCCl` [1-Chlorobutane], the flash point was -11.0 °C. In the case of `CCCCCCCCl` [1-Chloroheptane], the flash point is reported as 41.8 °C. `CCCCCCCCCCCCCCCCCl` [1-Chlorohexadecane] gave a flash point of 138.2 °C. `CCCCCCCl` [1-Chlorohexane] gave a flash point of 26.8 °C. Compound `CCCCCCCCCl` [1-Chlorooctane] has a flash point of 61.1 °C. `CCCCCCCCCCCCl` [1-Chloroundecane] showed a flash point of 94.5 °C. In the case of `CCC(C)C(C)(C)Cl` (centres undefined) [2-Chloro-2,3-dimethylpentane], the flash point is reported as 29.8 °C. In the case of `CC(C)(C)CC(C)(C)Cl` [2-Chloro-2,4,4-trimethylpentane], the flash point is reported as 38.4 °C. Compound `CCCCCC(C)(C)Cl` [2-Chloro-2-methylheptane] has a flash point of 47.2 °C. Work on `CCCCCCCC(C)(C)Cl` [2-Chloro-2-methylnonane] yielded a flash point of 72.2 °C. With `CCCC(C)(C)Cl` [2-Chloro-2-methylpentane] the flash point was 21 °C. `CCCCCCCCC(C)Cl` (centres undefined) [2-Chlorodecane] gave a flash point of 77.1 °C. `CCCCC(C)Cl` (centres undefined) [2-Chlorohexane] showed a flash point of 25.1 °C. For `CCCCCCCC(C)Cl` (centres undefined) [2-Chlorononane], the flash point was 65.2 °C. Compound `CCC(CC)CCl` [3-(Chloromethyl)pentane] has a flash point of 25.1 °C. In the case of `CCCC(C)(Cl)C(C)(C)C` (centres undefined) [3-Chloro-2,2,3-trimethylhexane], the flash point is reported as 51.7 °C. In the case of `CCCC(C)(Cl)C(C)C` (centres undefined) [3-Chloro-2,3-dimethylhexane], the flash point is reported as 43.6 °C. For `CCC(Cl)(CC)CC` [3-Chloro-3-ethylpentane], the flash point was 33.6 °C. `CCCCC(C)(Cl)CC` (centres undefined) [3-Chloro-3-methylheptane] gave a flash point of 47.2 °C. `CCCCCCC(C)(Cl)CC` (centres undefined) [3-Chloro-3-methylnonane] gave a flash point of 72.2 °C. `CCC(C)(Cl)CC` [3-Chloro-3-methylpentane] gave a flash point of 9.5 °C. `CCCCC(Cl)CC` (centres undefined) [3-Chloroheptane] showed a flash point of 39.2 °C. `CCCC(Cl)CC` (centres undefined) [3-Chlorohexane] gave a flash point of 25.1 °C. With `CCCCC(Cl)CCCC` [5-Chlorononane] the flash point was 65.2 °C. Compound `CCCCCCCCC(Cl)CCCC` (centres undefined) [5-Chlorotridecane] has a flash point of 110.1 °C. For `CCC[C@H](Cl)CCCC(C)C` [(S)-6-Chloro-2-methylnonane], the flash point was 73.8 °C.

Remark: another data set of the same source
In the case of `CCCC[O][Sn]([CH2]CCC)([CH2]CCC)[O]CCCC` [DI-n-BUTYLDI-n-BUTOXYTIN], the flash point is reported as 116.00 °C. `CCC[CH2][Sn]([CH2]CCC)([O]C(C)=O)[O]C(C)=O` [DI-n-BUTYLDIACETOXYTIN] gave a flash point of 143.00 °C. For `CCC[CH2][Sn]([CH2]CCC)([O]C)[O]C` [DI-n-BUTYLDIMETHOXYTIN], the flash point was 110.00 °C. Compound `C[C](C)(C)[Sn]([Cl])([Cl])[C](C)(C)C` [DI-t-BUTYLDICHLOROTIN] has a flash point of 113.00 °C. With `C=C[CH2][Sn]([CH2]C=C)([CH2]CCC)[CH2]CCC` [DIALLYLDI-n-BUTYLTIN] the flash point was 101.00 °C. With `C[N](C)[Sn]([CH3])([CH3])[CH3]` [DIMETHYLAMINOTRIMETHYLTIN] the flash point was 1.00 °C. Compound `CCCCCCCCCCC[CH2][Sn]([CH2]CCCCCCC)([CH2]CCCCCCC)[CH2]CCCCCCCCCCC` [DIOCTYLDILAURYLTIN] has a flash point of 198.00 °C. With `C#[C][Sn]([CH2]CCC)([CH2]CCC)[CH2]CCC` [ETHYNYLTRI-n-BUTYLTIN] the flash point was 73.00 °C. `CCC[CH2][Sn]([CH2]CCC)([CH2]CCC)[c]1ccccc1` [PHENYLTRI-n-BUTYLTIN] showed a flash point of 107.00 °C. For `CCC[CH2][Sn]([CH2]CCC)([CH2]CCC)[CH2]CCC` [TETRA-n-BUTYLTIN], the flash point was 107.00 °C. With `CCCCCCC[CH2][Sn]([CH2]CCCCCCC)([CH2]CCCCCCC)[CH2]CCCCCCC` [TETRA-n-OCTYLTIN] the flash point was 94.00 °C. `[CH3][Sn]([CH3])([CH3])[CH3]` [TETRAMETHYLTIN] showed a flash point of -12.00 °C. Work on `c1cc[c]([Sn]([c]2ccccc2)([c]2ccccc2)[c]2ccccc2)cc1` [TETRAPHENYLTIN] yielded a flash point of 231.00 °C. Work on `CCC[CH2][Sn]([Cl])([CH2]CCC)[CH2]CCC` [TRI-n-BUTYLCHLOROTIN] yielded a flash point of 120.00 °C. With `CCC[CH2][Sn]([CH2]CCC)([CH2]CCC)[O]CC` [TRI-n-BUTYLETHOXYTIN] the flash point was 104.00 °C. `CCC[CH2][Sn]([I])([CH2]CCC)[CH2]CCC` [TRI-n-BUTYLIODOTIN] showed a flash point of 113.00 °C. With `CCC[CH2][SnH]([CH2]CCC)[CH2]CCC` [TRI-n-BUTYLTIN HYDRIDE] the flash point was 40.00 °C. For `C1CC[CH]([SnH]([CH]2CCCCC2)[CH]2CCCCC2)CC1` [TRICYCLOHEXYLTIN HYDRIDE], the flash point was 105.00 °C.

Remark: another data set of the same source
`CCCCc1ccccc1` [butylbenzene] gave a flash point of 49 °C. Work on `CCCCCCCc1ccccc1` [heptylbenzene] yielded a flash point of 95 °C. With `CC(C)Cc1ccccc1` [isobutylbenzene] the flash point was 55 °C.

Remark: another data set of the same source
In the case of `CCc1cccc(CC)c1CC` [1,2,3-triethylbenzene], the flash point is reported as 79 °C. `Cc1cc(C)cc(C)c1` [1,3,5-trimethylbenzene] gave a flash point of 44.1 °C. Compound `CCCCc1cccc(CCCC)c1` [1,3-dibutylbenzene] has a flash point of 109.2 °C. In the case of `CC(C)(C)c1ccc(C(C)(C)C)cc1` [1,4-di-tert -butylbenzene], the flash point is reported as 97.0 °C. `Cc1ccc(C)c(C(C)C)c1` [1,4-dimethyl-2-isopropylbenzene] gave a flash point of 64.7 °C. Work on `CCCCc1cccc(C)c1` [1-butyl-3-methylbenzene] yielded a flash point of 70.8 °C. In the case of `CCCCc1ccc(C)cc1` [1-butyl-4-methylbenzene], the flash point is reported as 71.2 °C. `CCc1cccc(C)c1C` [1-ethyl-2,3-dimethylbenzene] showed a flash point of 65.1 °C. `CCc1ccc(C)cc1C` [1-ethyl-2,4-dimethylbenzene] gave a flash point of 57.1 °C. In the case of `CCc1cc(C)cc(C)c1` [1-ethyl-3,5-dimethylbenzene], the flash point is reported as 57.4 °C. Compound `Cc1ccccc1CC(C)C` [1-isobutyl-2-methylbenzene] has a flash point of 68.7 °C. For `Cc1cc(C)cc(C(C)(C)C)c1` [1-tert -butyl-3,5-dimethylbenzene], the flash point was 72 °C. With `CCc1c(C)cccc1C` [2-ethyl-1,3-dimethylbenzene] the flash point was 62.0 °C. `CCC(C)(C)c1ccccc1` [2-phenyl-2-methylbutane] showed a flash point of 59.4 °C. `Cc1ccccc1C(C)(C)C` [2-tert -butyltoluene] showed a flash point of 61.5 °C. Compound `CC(C)CC(C)Cc1ccccc1` (centres undefined) [(2,4-dimethylpentyl)benzene] has a flash point of 87.0 °C. For `CCC(C)Cc1ccccc1` (centres undefined) [(2-methylbutyl)benzene], the flash point was 64.1 °C. `CCCCc1ccccc1` [butylbenzene] showed a flash point of 58.1 °C. `CCCCCCCc1ccccc1` [heptylbenzene] gave a flash point of 95.5 °C. `CCCCCCc1ccccc1` [hexylbenzene] showed a flash point of 83.6 °C. `CC(C)Cc1ccccc1` [isobutylbenzene] showed a flash point of 50.1 °C. `CCc1cccc(CC)c1` [m -diethylbenzene] gave a flash point of 51.1 °C. In the case of `CCc1cccc(C(C)C)c1` [m -ethylcumene], the flash point is reported as 63 °C. With `CCCc1cccc(C)c1` [m -propyltoluene] the flash point was 52 °C. Work on `CC(C)(C)Cc1ccccc1` [neopentylbenzene] yielded a flash point of 50.1 °C. `Cc1ccccc1C` [o -xylene] showed a flash point of 30.1 °C. `CCCCCCCCc1ccccc1` [octylbenzene] gave a flash point of 107.1 °C. `CCc1ccc(C(C)C)cc1` [p -ethylcumene] showed a flash point of 65.8 °C. With `CCCc1ccc(C)cc1` [p -propyltoluene] the flash point was 56.4 °C. In the case of `CC(C)(C)c1ccccc1` [tert -butylbenzene], the flash point is reported as 44.1 °C.

Remark: another data set of the same source
With `CCCCCl` [1-Chlorobutane] the flash point was -9.3 °C.
